Experimental findings from US20220389009A1, “SUBSTITUTED 1,6-NAPHTHYRIDINE INHIBITORS OF CDK5” (Goldfinch Bio, Inc., priority 2019, published 2022) are described below.

A word on the IC50: it is the concentration needed to halve the response being measured.

Molecules are shown by their SMILES.

One experiment deals with CDK5/p25 (Homo sapiens, UniProt Q00535). Kind of experiment: CDK5 mobility shift assay (enzymatic activity of CDK5/p25). In kind it is biochemical. The following applies: for IC50: 0.154 nM CDK5/p25, FL peptide 29, 60 min at room temperature, read-out: CDK5 IC50; for CDK5/CDK2 specificity: fold more active against CDK5 than CDK2. The protocol: (§1) Compound potency was measured via a change in the enzymatic activity of CDK5/p25, and optionally of CDK2/CycA2. Enzymes, CDK5/p25 and CDK2/CycA2, were sourced from Carna Biosciences (Cat #04-106 and 04-103, respectively). Test compound stocks were diluted in 100% DMSO and serially diluted 3-fold in a 384-well plate using a TECAN EVO200 (TECAN). Staurosporine was used as a reference control compound in all assays.
(§2) Twenty nL of compound were transferred into a 384-well plate (Greiner 781201) using an Echo550 (Labcyte Inc). Enzyme, ATP, and 10 mM MgCl2 were preincubated at room temperature with the compound in assay buffer (50 mM HEPES pH 7.5, 1 mM EGTA, 0.01% Brij-35, 0.05% BSA, 2 mM DTT) for 30 minutes. Peptide substrate (FL peptide 29 (Perkin Elmer) for CDK5/p25; FL Peptide 18 (Perkin Elmer) for CDK2/CycA2) was added to initiate the reaction. The final assay contained 0.154 nM CDK5/p25 or 1.25 nM CDK2/CycA2, […] (for CDK5/p25) or 37 μM (for CDK2/CycA2) ATP, and 1.5 μM of the appropriate peptide substrate. The final DMSO concentration was <1%.
(§3) The CDK5/p25 reaction was incubated at room temperature for 60 min. The CDK2/CycA2 reaction was incubated at room temperature for 120 min. The reactions were quenched by the addition of 70 μL stopping buffer containing 0.5 M EDTA. Samples were analyzed using the EZ Reader (Perkin Elmer).
(§4) The results were expressed as % vehicle, where % vehicle=100×(U−C2)/(C1−C2), where U is the signal of sample, C1 is the average of the high controls (signal with no compound added), and C2 is the average of low controls (signal with the buffer in place of enzyme). The ICso is determined by fitting the percentage of inhibition as a function of compound concentrations using a 4-parameter fit defined as follows.
(§5) Y=Bottom+(Top−Bottom)/(1+10^((LobIC50-X)*Hill Slope)), where X is the log of the compound concentration, Y is the % vehicle or response at X, Top and Bottom are the plateaus in the same units as Y, and the Hill's Slope is unitless, and the ICso is the half-maximal inhibitory concentration.

The next experiment deals with CDK2/CycA2 (Homo sapiens, UniProt P24941). Put plainly: CDK2 mobility shift assay (enzymatic activity of CDK2/CycA2). It is filed as biochemical. The following applies: 1.25 nM CDK2/CycA2, 37 μM ATP, FL Peptide 18, 120 min at room temperature; read-out: CDK2 IC50. The protocol:
as §1, §2, §3, §4, §5

Chain of CDK5/p25 (Q00535 whole entry): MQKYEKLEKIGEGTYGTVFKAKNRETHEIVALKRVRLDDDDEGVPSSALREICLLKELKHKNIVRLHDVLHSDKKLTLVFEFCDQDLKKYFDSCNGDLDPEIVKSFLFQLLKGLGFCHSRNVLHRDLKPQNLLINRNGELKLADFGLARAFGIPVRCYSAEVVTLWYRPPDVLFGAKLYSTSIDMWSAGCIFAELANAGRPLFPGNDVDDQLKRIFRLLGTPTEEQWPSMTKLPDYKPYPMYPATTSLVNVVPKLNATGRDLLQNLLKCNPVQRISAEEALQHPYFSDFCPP
Chain of CDK5/p25 (Q15078 99-307 partner limits assumed): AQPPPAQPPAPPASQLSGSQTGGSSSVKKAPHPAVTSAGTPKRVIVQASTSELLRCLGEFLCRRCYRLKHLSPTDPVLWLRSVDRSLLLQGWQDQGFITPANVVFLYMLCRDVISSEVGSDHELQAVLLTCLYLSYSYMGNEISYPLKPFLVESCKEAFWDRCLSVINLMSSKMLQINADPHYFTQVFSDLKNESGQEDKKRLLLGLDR

Consider `COC(=O)c1cnn(-c2ccc(Nc3cc4nc(S(=O)(=O)C5CCN(C)CC5)ccc4cn3)c(F)c2)c1` [Compound 288], for which, on CDK5/p25, the IC50 was less than 10 nM and the CDK5/CDK2 specificity result is “+++ (greater than 100-fold more active against CDK5 than CDK2)”. Moreover, the IC50 at CDK2/CycA2 is greater than 1000 nM.

Regarding `CN1CCC(S(=O)(=O)c2ccc3cnc(Nc4cccc(N5CCOCC5)c4)cc3n2)CC1` [Compound 273], on CDK5/p25, the 50% inhibitory concentration (IC50) is less than 10 nM and the CDK5/CDK2 specificity entry is given as “+++ (greater than 100-fold more active against CDK5 than CDK2)”. In addition, the IC50 at CDK2/CycA2 was 100 to 1000 nM.

In the case of `CN1CCC(C(O)c2ccc3cnc(Nc4ccc(-n5ccc(CO)n5)cc4F)cc3n2)CC1` (single isomer, unassigned) [Compound 254, [7-([2-fluoro-4-[3-(hydroxymethyl)pyrazol-1-yl]phenyl]amino)-1,6-naphthyridin-2-yl](1-methylpiperidin-4-yl)methanol], at CDK5/p25, the 50% inhibitory concentration (IC50) is less than 10 nM and the CDK5/CDK2 specificity result was “+++ (greater than 100-fold more active against CDK5 than CDK2)”. In addition, at CDK2/CycA2, the IC50 was in the range of 100 to 1000 nM.

Turning to `Fc1cc(-n2cccn2)ccc1Nc1cc2nc(C=C3CCNCC3)ccc2cn1` [Compound 130, N-[2-fluoro-4-(pyrazol-1-yl)phenyl]-2-(piperidin-4-ylidenemethyl)-1,6-naphthyridin-7-amine], on CDK5/p25, the IC50 lay in the range of 10 to 100 nM; the CDK5/CDK2 specificity entry is “++ (greater than 10-fold and less than or equal to 100-fold more active against CDK5 than CDK2)”. For the same compound, the IC50 on CDK2/CycA2 is greater than 1000 nM.

Take `OCc1ccn(-c2ccc(Nc3cc4nc(SC5CCNCC5)ccc4cn3)c(F)c2)n1` [Compound 108, [1-(3-fluoro-4-[[2-(piperidin-4-ylsulfanyl)-1,6-naphthyridin-7-yl]amino]phenyl)pyrazol-3-yl]methanol]: at CDK5/p25, the half-maximal inhibitory concentration (IC50) is less than 10 nM; the CDK5/CDK2 specificity entry was “++ (greater than 10-fold and less than or equal to 100-fold more active against CDK5 than CDK2)”. In addition, the IC50 on CDK2/CycA2 fell in the range of 10 to 100 nM.

As to `CN1CCC(C(C)(O)c2ccc3cnc(Nc4ccc(-c5cccc(=O)n5C)cc4F)cc3n2)CC1` (stereo not drawn) [Compound 354], the results for the IC50 at CDK5/p25 and at CDK2/CycA2 were less than 10 nM and 10 to 100 nM, respectively. Moreover, on CDK5/p25, the CDK5/CDK2 specificity entry was “++ (greater than 10-fold and less than or equal to 100-fold more active against CDK5 than CDK2)”.

As to `[O-][S@@+](c1ccc2cnc(Nc3ccc(-n4cccn4)cc3F)cc2n1)C1CCNCC1` [Compound 115, N-[2-fluoro-4-(pyrazol-1-yl)phenyl]-2-[(R)-piperidine-4-sulfinyl]-1,6-naphthyridin-7-amine], on CDK5/p25, the IC50 is less than 10 nM; the CDK5/CDK2 specificity entry was “++ (greater than 10-fold and less than or equal to 100-fold more active against CDK5 than CDK2)”. At CDK2/CycA2, the IC50 was in the range of 10 to 100 nM.

As for `CN1CCC(S(=O)(=O)c2ccc3cnc(Nc4ccccc4N4CCOCC4)cc3n2)CC1` [Compound 266], the IC50 at CDK5/p25 and on CDK2/CycA2 was greater than 1000 nM in each case. At CDK5/p25, the CDK5/CDK2 specificity entry was “++ (greater than 10-fold and less than or equal to 100-fold more active against CDK5 than CDK2)”.

Take `COc1cncc(Nc2cc3nc(S(=O)(=O)C4CCN(C)CC4)ccc3cn2)c1` [Compound 267]: at CDK5/p25, the IC50 lay within 10 to 100 nM; the CDK5/CDK2 specificity result was “++ (greater than 10-fold and less than or equal to 100-fold more active against CDK5 than CDK2)”. Besides, on CDK2/CycA2, the IC50 was 100 to 1000 nM.

For `CN1CCC(S(=O)(=O)c2ccc3cnc(Nc4ccc(-n5cccn5)cc4F)cc3n2)CC1` [Compound 158, N-[2-fluoro-4-(pyrazol-1-yl)phenyl]-2-(1-methylpiperidin-4-ylsulfonyl)-1,6-naphthyridin-7-amine], on CDK5/p25, the IC50 is less than 10 nM and the CDK5/CDK2 specificity entry was “+++ (greater than 100-fold more active against CDK5 than CDK2)”. Further, on CDK2/CycA2, the IC50 fell in the range of 100 to 1000 nM.

For the compound `CN1CCC(C(O)c2ccc3cnc(Nc4ccc(-n5ccc(C(=O)O)n5)cc4F)cc3n2)CC1` (stereo not drawn) [Compound 292, 1-[3-fluoro-4-([2-[hydroxy(1-methylpiperidin-4-yl)methyl]-1,6-naphthyridin-7-yl]amino)phenyl]pyrazole-3-carboxylic acid], on CDK5/p25, the IC50 is less than 10 nM; the CDK5/CDK2 specificity result was “++ (greater than 10-fold and less than or equal to 100-fold more active against CDK5 than CDK2)”. In addition, at CDK2/CycA2, the IC50 is 100 to 1000 nM.

As to `CN1CCC(=Cc2ccc3cnc(Nc4ccc(-n5ccc(CO)n5)cc4F)cc3n2)CC1` [Compound 150, [1-[3-fluoro-4-([2-[(1-methylpiperidin-4-ylidene)methyl]-1,6-naphthyridin-7-yl]amino)phenyl]pyrazol-3-yl]methanol], at CDK5/p25, the IC50 lay within 10 to 100 nM; the CDK5/CDK2 specificity result was “++ (greater than 10-fold and less than or equal to 100-fold more active against CDK5 than CDK2)”. In addition, the IC50 at CDK2/CycA2 is greater than 1000 nM.

With `OCc1ccn(-c2ccc(Nc3cc4nc(C5(C6CCNCC6)CC5)ccc4cn3)c(F)c2)n1` [Compound 316, [1-[3-fluoro-4-([2-[1-(piperidin-4-yl)cyclopropyl]-1,6-naphthyridin-7-yl]amino)phenyl]pyrazol-3-yl]methanol], on CDK5/p25, the IC50 was 10 to 100 nM; the CDK5/CDK2 specificity result was “++ (greater than 10-fold and less than or equal to 100-fold more active against CDK5 than CDK2)”. For the same compound, on CDK2/CycA2, the IC50 was greater than 1000 nM.

Turning to `Cc1ccc(F)c(Nc2cc3nc(C(O)(C4CCN(C)CC4)C(F)(F)F)ccc3cn2)c1` (stereo not drawn) [Compound 394], at CDK5/p25, the IC50 is less than 10 nM; the CDK5/CDK2 specificity entry was “++ (greater than 10-fold and less than or equal to 100-fold more active against CDK5 than CDK2)”. Besides, the IC50 on CDK2/CycA2 lay in the range of 10 to 100 nM.

Turning to `CN1CCC(C(C)(O)c2ccc3cnc(Nc4ccc(CN5CCOCC5)cc4F)cc3n2)CC1` (stereo not drawn) [Compound 353], at CDK5/p25, the IC50 was less than 10 nM; the CDK5/CDK2 specificity entry was “++ (greater than 10-fold and less than or equal to 100-fold more active against CDK5 than CDK2)”. Further, the IC50 at CDK2/CycA2 lay within 10 to 100 nM.

`NC1CCN(C(=O)c2ccc3cnc(Nc4ccc(-n5cccn5)cc4F)cc3n2)C1` (stereo not drawn) [Compound 215, 2-(3-aminopyrrolidine-1-carbonyl)-N-[2-fluoro-4-(pyrazol-1-yl)phenyl]-1,6-naphthyridin-7-amine]: the IC50 is 100 to 1000 nM on CDK5/p25 and greater than 1000 nM on CDK2/CycA2. At CDK5/p25, the CDK5/CDK2 specificity entry is “+ (10-fold or less more active against CDK5 than CDK2)”.

In the case of `CN1CCC(S(=O)(=O)c2ccc3cnc(Nc4ccc(N5CCOCC5)cc4)cc3n2)CC1` [Compound 262], at CDK5/p25, the IC50 was less than 10 nM; the CDK5/CDK2 specificity entry was “++ (greater than 10-fold and less than or equal to 100-fold more active against CDK5 than CDK2)”. For the same compound, on CDK2/CycA2, the IC50 was 10 to 100 nM.

`CC(C)(O)c1ccn(-c2ccc(Nc3cc4nc(S(=O)(=O)C5CCN(CC6COC6)CC5)ccc4cn3)c(F)c2)n1` [Compound 340]: at CDK5/p25, the concentration for half-maximal inhibition (IC50) lay within 10 to 100 nM; the CDK5/CDK2 specificity result was “++ (greater than 10-fold and less than or equal to 100-fold more active against CDK5 than CDK2)”. The half-inhibitory concentration (IC50) at CDK2/CycA2 is greater than 1000 nM.

Regarding `CC(c1ccc2cnc(Nc3ccc(-n4ccc(CO)n4)cc3F)cc2n1)C1CCN(C)CC1` (single isomer, unassigned) [Compound 188, [1-[3-fluoro-4-([2-[1-(1-methylpiperidin-4-yl)ethyl]-1,6-naphthyridin-7-yl]amino)phenyl]pyrazol-3-yl]methanol], on CDK5/p25, the IC50 was less than 10 nM and the CDK5/CDK2 specificity result is on record as “+++ (greater than 100-fold more active against CDK5 than CDK2)”. Further, the IC50 on CDK2/CycA2 lay within 100 to 1000 nM.

Take `CN1CCC(N(Cc2cn[nH]c2)c2ccc3cnc(Nc4ccc(-n5ccc(CO)n5)cc4F)cc3n2)CC1` [Compound 309, [1-[3-fluoro-4-([2-[(1-methylpiperidin-4-yl) (1H-pyrazol-4-ylmethyl)amino]-1,6-naphthyridin-7-yl]amino)phenyl]pyrazol-3-yl]methanol]: on CDK5/p25, the IC50 lay within 10 to 100 nM; the CDK5/CDK2 specificity result is “++ (greater than 10-fold and less than or equal to 100-fold more active against CDK5 than CDK2)”. Further, at CDK2/CycA2, the 50% inhibitory concentration (IC50) was greater than 1000 nM.

Consider `CC(c1ccc2cnc(Nc3ccc(-c4cccnc4)cc3F)cc2n1)C1CCN(C)CC1` (stereo not drawn) [Compound 314], for which the results for the IC50 on CDK5/p25 and on CDK2/CycA2 were 10 to 100 nM and greater than 1000 nM, respectively. For the same compound, the CDK5/CDK2 specificity result on CDK5/p25 is “++ (greater than 10-fold and less than or equal to 100-fold more active against CDK5 than CDK2)”.
